From patent US20230190754A1, “Therapeutic combinations for the treatment of Progressive Fibrosing interstitial lung diseases” (Boehringer Ingelheim International GmbH, priority 2021, published 2023)
Marks after values point to notes of the source that are not given here.

Test system: IPF patients
Assay: Phase II clinical trial in IPF patients: Treatment Emergent Adverse Events (safety/tolerability), up to 13 weeks
[1] = Non-AF-group, 18 mg b.i.d., listed as Compound of Formula III
[2] = Non-AF-group, 18 mg b.i.d., listed as active agent

[O-][S@+]1CCc2nc(N3CCC(c4ncc(Cl)cn4)CC3)nc(NC3(CO)CCC3)c21 [Comp. of form. III]
8: AE: Diarrhoea, patients n (Non-AF-group, 18 mg b.i.d.) | AE: Respiratory, thoracic and mediastinal disorders, patients n (Non-AF-group, 18 mg b.i.d.)
1: AE: Decreased appetite, patients n (Non-AF-group, 18 mg b.i.d.) | AE: Dizziness, patients n (Non-AF-group, 18 mg b.i.d.) | AE: Metabolism and nutrition disorders, patients n (Non-AF-group, 18 mg b.i.d.) | AE: Oedema peripheral, patients n (Non-AF-group, 18 mg b.i.d.) | AE: Pyrexia, patients n (Non-AF-group, 18 mg b.i.d.) | AE: Rhinorrhoea, patients n (Non-AF-group, 18 mg b.i.d.) | AE: Vomiting, patients n (Non-AF-group, 18 mg b.i.d.) | Gastrointestinal disorders leading to discontinuation of trial treatment, patients n (Non-AF-group, 18 mg b.i.d.) | SAE: COPD, patients n (Non-AF-group, 18 mg b.i.d.) | SAE: Cardiac disorders, patients n (Non-AF-group, 18 mg b.i.d.) | SAE: Cardiac failure congestive, patients n (Non-AF-group, 18 mg b.i.d.) | SAE: Covid-19 pneumonia (fatal event), patients n (Non-AF-group, 18 mg b.i.d.) | SAE: Dyspnoea, patients n (Non-AF-group, 18 mg b.i.d.) | SAE: Infections and Infestations, patients n (Non-AF-group, 18 mg b.i.d.) | SAE: Lung neoplasm, patients n (Non-AF-group, 18 mg b.i.d.) | SAE: Neoplasms benign, malignant and unspecified, patients n (Non-AF-group, 18 mg b.i.d.) | SAE: Respiratory, thoracic and mediastinal disorders, patients n (Non-AF-group, 18 mg b.i.d.) | Vomiting leading to discontinuation of trial treatment, patients n (Non-AF-group, 18 mg b.i.d.)
(6.2) %: Headache, % (Total, N = 97)
(13.4) %: Nervous system disorders, % (Total, N = 97)
9: AE: General disorders and administration site conditions, patients n (Non-AF-group, 18 mg b.i.d.)
(4.2) %: AE: Fatigue, patients % (Non-AF-group, 18 mg b.i.d.) | AE: Musculoskeletal and connective tissue disorders, patients % (Non-AF-group, 18 mg b.i.d.) | AE: Nausea, patients % (Non-AF-group, 18 mg b.i.d.) | AE: Weight decreased, patients % (Non-AF-group, 18 mg b.i.d.) | Severe AEs, patients % (Non-AF-group, 18 mg b.i.d.)
4: AE: Nervous system disorders, patients n (Non-AF-group, 18 mg b.i.d.)
(27.1) %: AE: Gastrointestinal disorders, patients % (Non-AF-group, 18 mg b.i.d.)
(14.4) %: Infections and infestations, % (Total, N = 97) | Respiratory, thoracic and mediastinal disorders, % (Total, N = 97)
31: Any AE, patients n (Non-AF-group, 18 mg b.i.d.)
5: AE: Investigations, patients n (Non-AF-group, 18 mg b.i.d.)
13: AE: Gastrointestinal disorders, patients n (Non-AF-group, 18 mg b.i.d.)
(2.1) %: AE: Decreased appetite, patients % (Non-AF-group, 18 mg b.i.d.) | AE: Dizziness, patients % (Non-AF-group, 18 mg b.i.d.) | AE: Metabolism and nutrition disorders, patients % (Non-AF-group, 18 mg b.i.d.) | AE: Oedema peripheral, patients % (Non-AF-group, 18 mg b.i.d.) | AE: Pyrexia, patients % (Non-AF-group, 18 mg b.i.d.) | AE: Rhinorrhoea, patients % (Non-AF-group, 18 mg b.i.d.) | AE: Vomiting, patients % (Non-AF-group, 18 mg b.i.d.) | SAE: COPD, patients % (Non-AF-group, 18 mg b.i.d.) | SAE: Cardiac disorders, patients % (Non-AF-group, 18 mg b.i.d.) | SAE: Cardiac failure congestive, patients % (Non-AF-group, 18 mg b.i.d.) | SAE: Dyspnoea, patients % (Non-AF-group, 18 mg b.i.d.) | SAE: Infections and Infestations, patients % (Non-AF-group, 18 mg b.i.d.) | SAE: Lung neoplasm, patients % (Non-AF-group, 18 mg b.i.d.) | SAE: Neoplasms benign, malignant and unspecified, patients % (Non-AF-group, 18 mg b.i.d.) | SAE: Respiratory, thoracic and mediastinal disorders, patients % (Non-AF-group, 18 mg b.i.d.) | Vomiting leading to discontinuation of trial treatment, patients % (Non-AF-group, 18 mg b.i.d.) | Gastrointestinal disorders leading to discontinuation of trial treatment, patients % [1] | Abdominal Pain, % (Total, N = 97) | Arthralgia, % (Total, N = 97) | Bronchitis, % (Total, N = 97) | Condition aggravated, % (Total, N = 97) | Dizziness, % (Total, N = 97) | Oedema peripheral, % (Total, N = 97) | Pyrexia, % (Total, N = 97) | Rhinorrhoea, % (Total, N = 97)
7: AE: Infections and infestations, patients n (Non-AF-group, 18 mg b.i.d.)
(7.2) %: Cough, % (Total, N = 97)
(10.4) %: AE: Investigations, patients % (Non-AF-group, 18 mg b.i.d.)
(4.1) %: Asthenia, % (Total, N = 97) | Metabolism and nutrition disorders, % (Total, N = 97) | Nasopharyngitis, % (Total, N = 97)
(18.8) %: AE: General disorders and administration site conditions, patients % (Non-AF-group, 18 mg b.i.d.)
(64.6) %: Any AE, patients % [1]
(8.3) %: AE: Nervous system disorders, patients % (Non-AF-group, 18 mg b.i.d.)
(32.0) %: Gastrointestinal disorders, % (Total, N = 97)
(5.2) %: Dyspepsia, % (Total, N = 97) | Flatulence, % (Total, N = 97) | Musculoskeletal and connective tissue disorders, % (Total, N = 97)
(6.3) %: AE: Dyspepsia, patients % (Non-AF-group, 18 mg b.i.d.) | AE: Dyspnoea, patients % (Non-AF-group, 18 mg b.i.d.) | AE: Flatulence, patients % (Non-AF-group, 18 mg b.i.d.) | AE: Headache, patients % (Non-AF-group, 18 mg b.i.d.) | AEs leading to discontinuation of trial drug, patients % (Non-AF-group, 18 mg b.i.d.) | Serious AEs (patients with ≥1 SAE), patients % (Non-AF-group, 18 mg b.i.d.)
(3.1) %: Constipation, % (Total, N = 97) | Decreased appetite, % (Total, N = 97) | Dyspnoea, % (Total, N = 97) | Fatigue, % (Total, N = 97) | Nausea, % (Total, N = 97) | Vomiting, % (Total, N = 97) | Weight decreased, % (Total, N = 97)
16.7%: AE: Diarrhoea, patients % (Non-AF-group, 18 mg b.i.d.) | AE: Diarrhoea, patients % [2]
(15.5) %: Investigations, % (Total, N = 97)
64.6%: Any AE, patients % [2]
2.1%: Gastrointestinal disorders leading to discontinuation of trial treatment, patients % [2]
(16.5) %: General Disorders and Administration Side conditions, % (Total, N = 97)
(23.7) %: Diarrhoea, % (Total, N = 97)
(2.1)* %: SAE: Covid-19 pneumonia (fatal event), patients % (Non-AF-group, 18 mg b.i.d.)
(16.7) %: AE: Respiratory, thoracic and mediastinal disorders, patients % (Non-AF-group, 18 mg b.i.d.) | AE: Diarrhoea, patients % [1]
(14.6) %: AE: Infections and infestations, patients % (Non-AF-group, 18 mg b.i.d.)
3: AE: Dyspepsia, patients n (Non-AF-group, 18 mg b.i.d.) | AE: Dyspnoea, patients n (Non-AF-group, 18 mg b.i.d.) | AE: Flatulence, patients n (Non-AF-group, 18 mg b.i.d.) | AE: Headache, patients n (Non-AF-group, 18 mg b.i.d.) | AEs leading to discontinuation of trial drug, patients n (Non-AF-group, 18 mg b.i.d.) | Serious AEs (patients with ≥1 SAE), patients n (Non-AF-group, 18 mg b.i.d.)
2: AE: Fatigue, patients n (Non-AF-group, 18 mg b.i.d.) | AE: Musculoskeletal and connective tissue disorders, patients n (Non-AF-group, 18 mg b.i.d.) | AE: Nausea, patients n (Non-AF-group, 18 mg b.i.d.) | AE: Weight decreased, patients n (Non-AF-group, 18 mg b.i.d.) | Severe AEs, patients n (Non-AF-group, 18 mg b.i.d.)
